Values after ≈ are worked out from the molar mass of the structure shown. Read-outs that look alike come from different tables or passages of the source.
Key:
Type in all cases: cell-based
[1] = tested on: HCT116 (Colon) human cancer cell line; assay: In vitro anti-tumor screen, cancer cell antiproliferative assay, HCT116
Protocol: (§1) The following tables summarize the activity of all the synthetic derivatives. […] Lower values represent higher activity.
(§2) ^9 Cancer cell antiproliferative assays were performed by Dr. Takashi Owa, a postdoctoral fellow in the Stuart L. Schreiber research group.

[2] = tested on: PC-3 (Prostate) human cancer cell line; assay: In vitro anti-tumor screen, cancer cell antiproliferative assay, PC-3; settings: for IC50: Homo sapiens
Protocol: as §1, §2

[3] = tested on: A-549 (Lung) human cancer cell line; assay: In vitro anti-tumor screen, cancer cell antiproliferative assay, A-549
Protocol: as §1, §2

[4] = tested on: A375 (Melanoma) human cancer cell line; assay: In vitro anti-tumor screen, cancer cell antiproliferative assay, A375; settings: for IC50: Homo sapiens
Protocol: as §1, §2

[5] = HCT-116, Table 6, A-ring substitution at X2, colon, read-out: IC50 HCT 116
[6] = Table 6, A-ring substitution at X2, prostate, read-out: IC50 PC-3
[7] = A549, Table 6, A-ring substitution at X2, lung, read-out: IC50 A-549
[8] = A-375, Table 6, A-ring substitution at X2, melanoma, read-out: IC50 A375
[9] = HCT-116, Table 8, additional biological data, second value of cell, read-out: IC50 (ng/mL) Colon
[10] = Table 8, additional biological data, fourth value of cell, read-out: IC50 (ng/mL) Prost.
[11] = A549, Table 8, additional biological data, first value of cell, read-out: IC50 (ng/mL) Lung
[12] = A-375, Table 8, additional biological data, third value of cell, read-out: IC50 (ng/mL) Melan.
[13] = HCT-116, Table 5, B-ring substitution at X1, colon, >100 ng/mL considered inactive, read-out: IC50 HCT-116
[14] = Table 5, B-ring substitution at X1, prostate, >100 ng/mL considered inactive, read-out: IC50 PC-3
[15] = Table 5, B-ring substitution at X1, lung, >100 ng/mL considered inactive, read-out: IC50 A-549
[16] = A-375, Table 5, B-ring substitution at X1, melanoma, >100 ng/mL considered inactive, read-out: IC50 A375

| Compound | IC50 [1, 9] [ng/mL] | IC50 [2, 10] [ng/mL] | IC50 [3, 11] [ng/mL] | IC50 [4, 12] [ng/mL] | IC50 [1, 13] [ng/mL] | IC50 [2, 14] [ng/mL] | IC50 [3, 15] [ng/mL] | IC50 [4, 16] [ng/mL] | other results |
| --- | --- | --- | --- | --- | --- | --- | --- | --- | --- |
| C=CCOc1c(C)c2c(c3c1C[C@H]1[C@H]4c5c(cc(C)c(OC)c5O)C[C@@H]([C@H](C#N)N1[C@H]3CN1C(=O)c3ccccc3C1=O)N4C)OCO2 [Compound 45] |  |  |  |  |  |  |  |  | IC50 [1, 5]: 2.1 ng/mL (≈ 3.24 nM); IC50 [2, 6]: 3.1 ng/mL (≈ 4.78 nM); IC50 [3, 7]: 5.2 ng/mL (≈ 8.02 nM); IC50 [4, 8]: 0.98 ng/mL (≈ 1.51 nM) |
| COc1c(C)c(Cl)c2c(c1O)[C@@H]1[C@@H]3Cc4c(OC(C)=O)c(C)c5c(c4[C@H](CN4C(=O)c6ccccc6C4=O)N3[C@@H](C#N)[C@H](C2)N1C)OCO5 | 0.7 (≈ 1.02 nM) | 0.73 (≈ 1.07 nM) | 1.9 (≈ 2.77 nM) | 0.24 (≈ 0.35 nM) |  |  |  |  |  |
| COc1c(C)cc2c(c1O)[C@@H]1[C@@H]3Cc4c(OC(C)=O)c(C)c5c(c4[C@H](CN4Cc6ccccc6C4=O)N3[C@@H](C#N)[C@H](C2)N1C)OCO5 [Compound 27] |  |  |  |  | 2.2 (≈ 3.46 nM) | 1.7 (≈ 2.67 nM) | 7.2 (≈ 11.3 nM) | 0.71 (≈ 1.12 nM) |  |
| COc1c(C)cc2c(c1O)[C@@H]1[C@@H]3CC4=C(C(=O)C(O)=C(C)C4=O)[C@H](CN4C(=O)c5ccccc5C4=O)N3[C@@H](C#N)[C@H](C2)N1C | 13 (≈ 21.9 nM) | 9 (≈ 15.1 nM) | 48 (≈ 80.7 nM) | 2.1 (≈ 3.53 nM) |  |  |  |  |  |
| COc1c(C)c(Br)c2c(c1O)[C@@H]1[C@@H]3Cc4c(OC(C)=O)c(C)c5c(c4[C@H](CN4C(=O)c6ccccc6C4=O)N3[C@@H](C#N)[C@H](C2)N1C)OCO5 | 1.3 (≈ 1.78 nM) | 2 (≈ 2.74 nM) | 4.7 (≈ 6.44 nM) | 0.47 (≈ 0.644 nM) |  |  |  |  |  |
| COc1c(C)cc2c(c1O)[C@@H]1[C@@H]3Cc4c(OC(C)=O)c(C)c5c(c4[C@H](CN4C(=O)c6ccc(N)cc6C4=O)N3[C@@H](C#N)[C@H](C2)N1C)OCO5 [Compound 20] |  |  |  |  | 2.1 (≈ 3.15 nM) | 2 (≈ 3 nM) | 14 (≈ 21 nM) | 0.79 (≈ 1.19 nM) |  |
| COCOc1c(OC)c(C)cc2c1[C@@H]1[C@@H]3Cc4c(OC(C)=O)c(C)c5c(c4[C@H](CN4C(=O)c6ccccc6C4=O)N3[C@@H](C#N)[C@H](C2)N1C)OCO5 | 51 (≈ 73.4 nM) | 68 (≈ 97.9 nM) | 160 (≈ 230 nM) | 46 (≈ 66.2 nM) |  |  |  |  |  |
| COc1c(C)cc2c(c1O)[C@@H]1[C@@H]3Cc4c(O)c(C)c5c(c4[C@H](CNC(=O)Cc4ccc(OC(C)=O)cc4)N3[C@@H](C#N)[C@H](C2)N1C)OCO5 | > 100 | > 100 | > 100 | > 100 |  |  |  |  |  |
| COc1c(C)cc2c(c1O)[C@H]1N[C@@H](C2)[C@H](C#N)N2[C@@H](CN3C(=O)c4ccccc4C3=O)c3c(c(OC(C)=O)c(C)c4c3OCO4)C[C@@H]12 | 3.5 (≈ 5.5 nM) | 3.3 (≈ 5.18 nM) | 21 (≈ 33 nM) | 1.9 (≈ 2.98 nM) |  |  |  |  |  |
| COC1=C(C)C(=O)C2=C(C1=O)[C@@H]1[C@@H]3Cc4c(OC(C)=O)c(C)c5c(c4[C@H](CN4C(=O)c6ccccc6C4=O)N3[C@@H](C#N)[C@H](C2)N1C)OCO5 | 0.53 (≈ 0.797 nM) | 0.45 (≈ 0.677 nM) | 1.1 (≈ 1.65 nM) | 0.3 (≈ 0.451 nM) |  |  |  |  |  |
| COc1c(C)cc2c(c1OC(C)=O)[C@@H]1[C@@H]3Cc4c(OC(C)=O)c(C)c5c(c4[C@H](CN4C(=O)c6ccccc6C4=O)N3[C@@H](C#N)[C@H](C2)N1C)OCO5 | 20 (≈ 28.9 nM) | 17 (≈ 24.5 nM) | 40 (≈ 57.7 nM) | 8.3 (≈ 12 nM) |  |  |  |  |  |
| COc1c(C)cc2c(c1O)[C@@H]1[C@@H]3Cc4c(OC(C)=O)c(C)c5c(c4[C@H](CNC(=O)Cc4ccc(O)cc4)N3[C@@H](C#N)[C@H](C2)N1C)OCO5 [Compound 56] |  |  |  |  | 20 (≈ 30.5 nM) | 24 (≈ 36.7 nM) | > 100 | 6.5 (≈ 9.93 nM) |  |
| COC1=C(C)C(=O)C2=C(C1=O)[C@H](CN1C(=O)c3ccccc3C1=O)N1[C@@H](C#N)[C@@H]3Cc4cc(C)c(OC)c(O)c4[C@H]([C@@H]1C2)N3C | 24 (≈ 39.4 nM) | 22 (≈ 36.1 nM) | > 100 | 9 (≈ 14.8 nM) |  |  |  |  |  |
| COc1c(C)cc2c(c1O)[C@@H]1[C@@H]3Cc4c(O)c(C)c5c(c4[C@H](CN4C(=O)c6ccccc6C4=O)N3[C@@H](C#N)[C@H](C2)N1C)OCO5 [Compound 48] |  |  |  |  |  |  |  |  | IC50 [1, 5]: 6 ng/mL (≈ 9.86 nM); IC50 [2, 6]: 7.7 ng/mL (≈ 12.7 nM); IC50 [3, 7]: 30 ng/mL (≈ 49.3 nM); IC50 [4, 8]: 2.5 ng/mL (≈ 4.11 nM) |
| COc1c(C)cc2c(c1O)[C@@H]1[C@@H]3Cc4c(OC(C)=O)c(C)c5c(c4[C@H](CN4C(=O)c6ccccc6C4O)N3[C@@H](C#N)[C@H](C2)N1C)OCO5 (some centres unmarked) [Compound 28] |  |  |  |  | 2.4 (≈ 3.68 nM) | 2.7 (≈ 4.14 nM) | 22 (≈ 33.7 nM) | 0.79 (≈ 1.21 nM) |  |
| COc1c(C)cc2c(c1O)[C@@H]1[C@@H]3Cc4c(OC(C)=O)c(C)c5c(c4[C@H](CN4C(=O)c6ccccc6C4=O)N3[C@@H](C#N)[C@H](C2)N1C)OCO5 [Compound 7] |  |  |  |  | 0.25 (≈ 0.384 nM) | 0.36 (≈ 0.553 nM) | 0.62 (≈ 0.953 nM) | 0.11 (≈ 0.169 nM) | IC50 [1, 5]: 0.25 ng/mL (≈ 0.384 nM); IC50 PC-3 ([2]; Table 6, A-ring substitution at X2, prostate): 0.36 ng/mL (≈ 0.553 nM); IC50 [3, 7]: 0.62 ng/mL (≈ 0.953 nM); IC50 A375 ([4]; Table 6, A-ring substitution at X2, melanoma): 0.11 ng/mL (≈ 0.169 nM) |
| COc1c(C)cc2c(c1O)[C@@H]1[C@@H]3Cc4c(OS(C)(=O)=O)c(C)c5c(c4[C@H](CN4C(=O)c6ccccc6C4=O)N3[C@@H](C#N)[C@H](C2)N1C)OCO5 [Compound 44] |  |  |  |  |  |  |  |  | IC50 ([1]; HCT-116, read-out: IC50 HCT 116): 0.4 ng/mL (≈ 0.582 nM); IC50 ([2]; read-out: IC50 PC-3): 0.59 ng/mL (≈ 0.859 nM); IC50 ([3]; A549, read-out: IC50 A-549): 1.2 ng/mL (≈ 1.75 nM); IC50 ([4]; A-375, read-out: IC50 A375): 0.2 ng/mL (≈ 0.291 nM) |
| COc1c(C)cc2c(c1O)[C@@H]1[C@@H]3Cc4c(OC(C)=O)c(C)c5c(c4[C@H](CNC(=O)c4ccccc4)N3[C@@H](C#N)[C@H](C2)N1C)OCO5 [Compound 63] |  |  |  |  |  |  |  |  | IC50 ([1]; HCT-116, read-out: IC50 Colon): 0.37 ng/mL (≈ 0.592 nM); IC50 ([2]; read-out: IC50 Prostate): 0.4 ng/mL (≈ 0.64 nM); IC50 ([3]; A549, read-out: IC50 Lung): 2 ng/mL (≈ 3.2 nM); IC50 ([4]; A-375, read-out: IC50 Melanoma): 0.22 ng/mL (≈ 0.352 nM) |
| CNC(=O)Oc1c(C)c2c(c3c1C[C@H]1[C@H]4c5c(cc(C)c(OC)c5O)C[C@@H]([C@H](C#N)N1[C@H]3CN1C(=O)c3ccccc3C1=O)N4C)OCO2 [Compound 66] |  |  |  |  |  |  |  |  | IC50 ([1]; HCT-116, Table 7, additional analogs, read-out: IC50 Colon): 1.3 ng/mL (≈ 1.95 nM); IC50 ([2]; Table 7, additional analogs, read-out: IC50 Prostate): 2.1 ng/mL (≈ 3.15 nM); IC50 ([3]; A549, Table 7, additional analogs, read-out: IC50 Lung): 8.6 ng/mL (≈ 12.9 nM); IC50 ([4]; A-375, Table 7, additional analogs, read-out: IC50 Melanoma): 0.92 ng/mL (≈ 1.38 nM) |
| COc1c(C)cc2c(c1O)[C@@H]1[C@@H]3Cc4c(OC(C)=O)c(C)c5c(c4[C@H](COC(=O)Nc4ccccc4)N3[C@@H](C#N)[C@H](C2)N1C)OCO5 [Compound 22] |  |  |  |  | 2.3 (≈ 3.59 nM) | 2.6 (≈ 4.06 nM) | 4.5 (≈ 7.02 nM) | 1.9 (≈ 2.97 nM) |  |
| COc1c(C)cc2c(c1O)[C@@H]1[C@@H]3Cc4c(OC(C)=O)c(C)c5c(c4[C@H](CN4C(=O)c6ccccc6C4=O)N3[C@@H](C#N)[C@H](C2)N1C)OCO5 | 0.39 (≈ 0.599 nM) | 0.34 (≈ 0.523 nM) | 0.67 (≈ 1.03 nM) | 0.13 (≈ 0.2 nM) |  |  |  |  |  |
| COc1c(C)cc2c(c1O)[C@@H]1[C@@H]3Cc4c(OC(C)=O)c(C)c5c(c4[C@H](CN4C(=O)c6ccncc6C4=O)N3[C@@H](C#N)[C@H](C2)N1C)OCO5 [Compound 32] |  |  |  |  | 2.1 (≈ 3.22 nM) | 37 (≈ 56.8 nM) | 11 (≈ 16.9 nM) | 0.36 (≈ 0.552 nM) |  |
